{
  "source": "patent US11629135B2",
  "about": "(JUBILANT PRODEL LLC, priority 2017, dated 2023)",
  "key": {"[1]": {"experiment": "Metabolic stability in liver microsomes (dog)", "assay_type": "in vitro ADME", "conditions": "dog liver microsomes 0.5 mg/mL, compound 1 μM, NADPH, up to 30 min", "protocol": "(§1) Metabolic Stability in Liver Microsomes\n(§2) Procedure: Potassium phosphate buffer (66.7 mM, pH 7.4) containing mouse or rat or dog or monkey or human liver microsomes (0.5 mg/mL) was pre-incubated separately with compound (1 μM) and positive control (verapamil, 1 μM) in a 37° C. water bath for 5 min. The reactions were initiated by adding 20 μL of 10 mM NADPH. Reactions without NADPH (0 and 30 min) were also incubated to rule out non-NADPH metabolism or chemical instability in the incubation buffer. All reactions were terminated using 200 μL of ice-cold acetonitrile containing internal standard at 0, 5, 15 and 30 min. The vials were centrifuged at 3000 rpm for 15 min. The reaction mixtures (obtained from the above studies) were extracted, processed and analyzed by LC-MS [Shimadzu SIL LC series (Kyoto, Japan) was coupled to an API-4000 Mass Spectrometer (MDS Sciex, Toronto, Canada)] to monitor the disappearance of compound."}, "[2]": {"experiment": "Plasma protein binding by equilibrium dialysis", "assay_type": "in vitro ADME, mouse", "conditions": "pH 7.4; mouse plasma, 3 μM, equilibrium dialysis 4.5 h", "protocol": "(§3) To evaluate the ability of compound to bind the plasma proteins, the most common approach of plasma protein binding using equilibrium dialysis was used. Compound was tested at a final concentration of 3 μM in mouse, rat, human or dog plasma. An aliquot of 150 μL plasma containing compound was added in first half (plasma side) of the well of 96-well micro-equilibrium dialysis device. An aliquot of 150 μL of 100 mM sodium phosphate buffer pH 7.4 was added in the second half (buffer side) of the well of 96-well HT equilibrium dialysis device. The plate containing plasma and buffer was equilibrated at 37±1° C. for 4.5 h, with constant shaking at 120 rpm on an orbital shaker. Samples were collected from respective halves after the completion of incubation time. The proteins were precipitated using organic solvents. The samples were subjected to centrifugation and the supernatants were analyzed analysis on LC-MS/MS."}, "[3]": {"system": "plasma proteins", "experiment": "Plasma protein binding by equilibrium dialysis", "assay_type": "in vitro ADME, mouse", "conditions": "plasma, equilibrium dialysis", "protocol": "as §3"}, "[4]": {"experiment": "Intravenous and oral pharmacokinetics in mice", "assay_type": "in vivo, Balb/c mice", "conditions": "for Vd: iv, 2 mg/kg; for half-life: read-out: t1/2, β (converted)", "excerpt": "Pharmacokinetics Evaluation of Compound-45: Animal Experiments Details\nInstitutional Animal Ethical Committee (IAEC) of Jubilant Biosys (IAEC/JDC/2018/158) nominated by CPCSEA (Committee for the Purpose of Control and Supervision of Experiments on Animals) approved the mice pharmacokinetic experiments. Male Balb/c mice (˜6-8 weeks old with body weight range of 22-25 g) were procured from Vivo Biotech, Hyderabad, India. Animals were quarantined in Jubilant Biosys Animal House for a period of 7 days with a 12:12 h light:dark cycles, and prior study the animals were stratified as per body weight. Animals had free access to feed (Altromin Spezialfutter GmbH & Co. KG., Im Seelenkamp 20, D-32791, Lage, Germany) and water ad-libitum.\nIntravenous and oral pharmacokinetics study was done at a dose of 2 and 10 mg/kg and at a dose volume of 10 mL/kg. Serial blood samples (200 μL) were collected from retro-orbital plexus at 0.083 (Only for IV), 0.15, 0.5, 1, 2, 4, 8, 10 (only for PO) and 24 h. Blood samples collected in tubes containing K2.EDTA as anticoagulant and centrifuged for 5 min at 14000 rpm in a refrigerated centrifuge (Biofuge, Heraeus, Germany) maintained at 4° C. for plasma separation.\nGroup I (PO) (22-25 g) received compound-45 at 10 mg/Kg (suspension formulation prepared using 0.5% methylcellulose and Tween-80; dose volume: 10 mL/Kg), whereas group II received IV (24-25 g) received compound-45 intravenously [5% DMSO, 5% Solutol:absolute alcohol (1:1, v/v) and 90% of normal saline; strength: 0.2 mg/mL; dose volume: 10 mL/Kg] at 2.0 mg/Kg dose. Post-dosing serial blood samples (200 μL), sparse sampling was done and at each time point three mice were used for blood sampling) were collected at regular intervals using heparinized capillaries through retro-orbital plexus into polypropylene tubes containing K2.EDTA solution as an anti-coagulant. Animals were allowed to eat feed 2 h post dose of compound-45. Blood concentration-time data of compound-45 was analyzed by non-compartmental method using Phoenix WinNonlin Version 7.0."}, "[5]": {"experiment": "Metabolic stability in liver microsomes (rat)", "assay_type": "in vitro ADME", "conditions": "rat liver microsomes 0.5 mg/mL, compound 1 μM, NADPH, up to 30 min", "protocol": "as §1, §2"}, "[6]": {"system": "Caco-2 human intestinal epithelial cells", "experiment": "Caco-2 permeability", "assay_type": "in vitro ADME", "conditions": "5 μM, bi-directional, 60 min", "protocol": "Procedure: Caco-2 human intestinal epithelial cells were plated in 24-Transwell® dual chamber plates (Millipore, Billerica, Mass., USA) (cell density of 80,000 cells/cm^2 on day-1). The permeability studies were conducted with the monolayers cultured for 21 to 22 days in culture. The integrity of each Caco-2 cell monolayer was certified by trans epithelial electrical resistance (TEER) test (pre-experiment) and by determining the permeability of reference compound i.e., Lucifer yellow. Caco-2 cell monolayers with TEER values greater than 500 Ωcm^2 were considered for experimentation. Digoxin (5 μM) was used as a positive control for P-gp substrate. The concentrations of compound used in the assay was 5 μM. HBSS Buffer was used as the medium for the transport assay and the final concentration of DMSO in spiking solution was 0.05%. The bi-directional permeability study was initiated by adding an appropriate volume of HBSS buffer containing compound to respective apical and basolateral chambers (n=3). An aliquot of sample (100 μL) was taken from both chambers at 0 and 60 min of the incubation period and to this equal volume of acetonitrile was added, mixed gently and centrifuged at 4000 rpm for 10 min. An aliquot of 100 μL was subsequently transferred to the auto-sampler and 10 μL was injected for analysis on LC-MS/MS."}, "[7]": {"conditions": "male, mouse, plasma, Balb C mice, IV dose of 2 mg/Kg"}, "[8]": {"conditions": "male, mouse, plasma, Balb C mice, oral dose of 10 mg/Kg"}},
  "note": "Read-outs that look alike come from different tables or passages of the source.",
  "data": [
    {"smiles": "COc1nc(OCc2cccc(-c3ccccc3)c2C)nc(OC)c1CN1CCCC[C@H]1C(=O)O", "note": "[Compound 45, (S)-1-((4,6-dimethoxy-2-((2-methyl-[1,1′-biphenyl]-3-yl)methoxy)pyrimidin-5-yl)methyl)piperidine-2-carboxylic acid]", "values": [
      {"measurement": "Metabolic stability in liver microsomes", "setting": "[1]", "result": "> 80", "unit": "%"},
      {"measurement": "fraction unbound at 4.5 h, 3 μM", "setting": "[2]", "result": 0.039},
      {"measurement": "stability and recovery in plasma", "setting": "[3]", "result": "good"},
      {"measurement": "Tlast", "setting": "[4]; Balb C mice, IV dose of 2 mg/Kg", "result": 8.00, "unit": "h"},
      {"measurement": "Tlast", "setting": "[4]; Balb C mice, oral dose of 10 mg/Kg", "result": 24.0, "unit": "h"},
      {"measurement": "Oral bioavailability (F %)", "setting": "[4]; Balb C mice, oral dose of 10 mg/Kg, 10 mg/kg", "result": 90.6, "unit": "%"},
      {"measurement": "Vd", "setting": "[4]; male, Balb/c, mouse, plasma, Balb C mice, IV dose of 2 mg/Kg, read-out: Vd", "result": 0.74, "unit": "L/kg"},
      {"measurement": "Vd", "setting": "[4]; male, Balb/c, mouse, plasma, Balb C mice, IV dose of 2 mg/Kg, read-out: Vdss", "result": 1.2, "unit": "L/kg"},
      {"measurement": "bioavailability", "setting": "[4]; male, Balb/c, mouse, plasma, po, 10 mg/kg, Balb C mice, oral dose of 10 mg/Kg, read-out: Oral bioavailability (F %)", "result": 91, "unit": "%"},
      {"measurement": "AUC(0-inf)", "setting": "[4]; [7]", "result": 4920, "unit": "ng·h/mL"},
      {"measurement": "AUC(0-t)", "setting": "[4]; [7]", "result": 4480, "unit": "ng·h/mL"},
      {"measurement": "Cmax", "setting": "[4]; [7]", "result": 2110, "unit": "ng/mL"},
      {"measurement": "clearance", "setting": "[4]; [7]", "result": 6.77, "unit": "mL/min/kg"},
      {"measurement": "C0", "setting": "[4]; male, mouse, plasma, Balb C mice, IV dose of 2 mg/Kg, extrapolated, calculated manually using initial 3 time points", "result": 2130, "unit": "ng/mL"},
      {"measurement": "half-life", "setting": "[4]; [7]", "result": 1.27, "unit": "h"},
      {"measurement": "AUC(0-inf)", "setting": "[4]; [8]", "result": 21100, "unit": "ng·h/mL"},
      {"measurement": "AUC(0-t)", "setting": "[4]; [8]", "result": 20300, "unit": "ng·h/mL"},
      {"measurement": "Cmax", "setting": "[4]; [8]", "result": 4840, "unit": "ng/mL"},
      {"measurement": "Tmax", "setting": "[4]; [8]", "result": 0.5, "unit": "h"},
      {"measurement": "half-life", "setting": "[4]; [8]", "result": 6.32, "unit": "h"},
      {"measurement": "clearance as share of hepatic blood flow (HBF)", "setting": "[4]; mice, intravenous", "result": 8, "unit": "% hepatic blood flow"},
      {"measurement": "volume of distribution relative to total body water (TBW)", "setting": "[4]; mice, intravenous", "result": 40, "unit": "times"},
      {"measurement": "Metabolic stability in liver microsomes", "setting": "[5]", "result": "> 80", "unit": "%"},
      {"measurement": "Caco-2 efflux", "setting": "[6]", "result": "high efflux"},
      {"measurement": "Caco-2 permeability", "setting": "[6]", "result": "medium permeable"}
    ]}
  ]
}
